pIC50: −log10 of the molar value.
Key:
[1] = molecular target: T1, G250E Bcr-abl (Ba/F3 cells) (Homo sapiens, UniProt P00519, G250E); experiment: Proliferation of Ba/F3 cells expressing mutant Bcr-abl G250E; type: cell-based
T1 construct: expressed in transfected cells; host or cells: Ba/F3; the other entry of the earlier key: BCR (P11274, Breakpoint cluster region protein)
Description: (§1) 2D-p210 cells are plated into 96 well TC plates at a density of 15,000 cells per well. 50 μL of two fold serial dilutions of the test compound (Cmax is 40 μM) are added to each well (STI571 is included as a positive control). After incubating the cells for 48 hours at 37° C., 5% CO2, 15 μL of MTT (Promega) is added to each well and the cells are incubated for an additional 5 hours. The optical density at 570 nm is quantified spectrophotometrically and IC50 values, the concentration of compound required for 50% inhibition, determined from a dose response curve.
(§2) Compounds of the invention are tested for their antiproliferative effect on Ba/F3 cells expressing either wild type or the mutant forms of BCR-Abl (G250E, E255V, T315I, F317L, M351T) that confers resistance or diminished sensitivity to STI571. The antiproliferative effect of these compounds on the mutant-BCR-Abl expressing cells and on the non transformed cells were tested at 10, 3.3, 1.1 and 0.37 μM as described above (in media lacking IL3). The IC50 values of the compounds lacking toxicity on the untransformed cells were determined from the dose response curves obtained as describe above.

Rsk1 = molecular target: T2, Rsk1 (Homo sapiens, UniProt Q15418); experiment: Upstate KinaseProfiler radio-enzymatic filter binding assay; type: biochemical; conditions: at a concentration of 10 μM; read-out: percentage inhibition of Rsk1
T2 construct: purchased Upstate
T2 sequence (Q15418 whole entry): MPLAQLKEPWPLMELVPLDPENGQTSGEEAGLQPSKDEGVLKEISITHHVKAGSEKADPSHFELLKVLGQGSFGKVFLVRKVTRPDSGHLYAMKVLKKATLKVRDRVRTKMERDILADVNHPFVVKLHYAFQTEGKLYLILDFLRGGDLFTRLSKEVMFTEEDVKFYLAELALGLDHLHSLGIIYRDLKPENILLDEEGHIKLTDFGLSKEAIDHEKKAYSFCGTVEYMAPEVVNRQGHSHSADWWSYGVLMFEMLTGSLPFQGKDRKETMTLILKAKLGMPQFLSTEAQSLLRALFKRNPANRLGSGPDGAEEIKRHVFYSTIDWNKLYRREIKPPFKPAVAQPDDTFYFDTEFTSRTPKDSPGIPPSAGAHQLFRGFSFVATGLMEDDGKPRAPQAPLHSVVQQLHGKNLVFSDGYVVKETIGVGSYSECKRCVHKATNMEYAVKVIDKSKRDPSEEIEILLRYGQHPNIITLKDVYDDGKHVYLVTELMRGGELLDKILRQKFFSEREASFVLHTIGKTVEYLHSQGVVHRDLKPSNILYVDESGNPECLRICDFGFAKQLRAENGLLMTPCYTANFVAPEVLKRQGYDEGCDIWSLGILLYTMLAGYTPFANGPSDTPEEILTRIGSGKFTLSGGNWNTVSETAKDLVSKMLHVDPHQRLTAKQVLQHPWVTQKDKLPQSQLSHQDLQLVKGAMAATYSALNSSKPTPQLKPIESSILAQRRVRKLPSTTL
Description: (§3) Compounds of the invention are assessed for their ability to inhibit individual members of a panel of kinases (a partial, non-limiting list of kinases includes: Abl, BMX, BTK, CHK2, c-RAF, CSK, c-SRC, Fes, FGFR3, Flt3, IKKα, IKKβ, JNK2α2, Lck, Met, MKK4, MKK6, MST2, NEK2, p70S6K, PDGFRβ, PKA, PKBα, PKD2, Rsk1, SAPK2α, SAPK2β, SAPK3, SGK, Tie2 and/or TrkB. The compounds are tested in duplicates at a final concentration of 10 μM following this generic protocol. Note that the kinase buffer composition and the substrates vary for the different kinases included in the “Upstate KinaseProfiler™” panel. Kinase buffer (2.5 μL, 10×—containing MnCl2 when required), active kinase (0.001-0.01 Units; 2.5 μL), specific or Poly(Glu4-Tyr) peptide (5-500 μM or 0.01 mg/ml) in kinase buffer and kinase buffer (50 μM; 5 μL) are mixed in an eppendorf on ice. A Mg/ATP mix (10 μL; 67.5 (or 33.75) mM MgCl2, 450 (or 225) μM ATP and 1 μCi/μl [γ-^32P]-ATP (3000 Ci/mmol)) is added and the reaction is incubated at about 30° C. for about 10 minutes. The reaction mixture is spotted (20 μL) onto a 2 cm×2 cm P81 (phosphocellulose, for positively charged peptide substrates) or Whatman No. 1 (for Poly (Glu4-Tyr) peptide substrate) paper square. The assay squares are washed 4 times, for 5 minutes each, with 0.75% phosphoric acid and washed once with acetone for 5 minutes. The assay squares are transferred to a scintillation vial, 5 ml scintillation cocktail are added and ^32P incorporation (cpm) to the peptide substrate is quantified with a Beckman scintillation counter. Percentage inhibition is calculated for each reaction.

Tie2 = molecular target: T3, Tie2 (Homo sapiens, UniProt Q02763); experiment: as above; type: biochemical; conditions: at a concentration of 10 μM; read-out: percentage inhibition of Tie2
T3 construct: purchased Upstate
T3 sequence (Q02763 23-1124): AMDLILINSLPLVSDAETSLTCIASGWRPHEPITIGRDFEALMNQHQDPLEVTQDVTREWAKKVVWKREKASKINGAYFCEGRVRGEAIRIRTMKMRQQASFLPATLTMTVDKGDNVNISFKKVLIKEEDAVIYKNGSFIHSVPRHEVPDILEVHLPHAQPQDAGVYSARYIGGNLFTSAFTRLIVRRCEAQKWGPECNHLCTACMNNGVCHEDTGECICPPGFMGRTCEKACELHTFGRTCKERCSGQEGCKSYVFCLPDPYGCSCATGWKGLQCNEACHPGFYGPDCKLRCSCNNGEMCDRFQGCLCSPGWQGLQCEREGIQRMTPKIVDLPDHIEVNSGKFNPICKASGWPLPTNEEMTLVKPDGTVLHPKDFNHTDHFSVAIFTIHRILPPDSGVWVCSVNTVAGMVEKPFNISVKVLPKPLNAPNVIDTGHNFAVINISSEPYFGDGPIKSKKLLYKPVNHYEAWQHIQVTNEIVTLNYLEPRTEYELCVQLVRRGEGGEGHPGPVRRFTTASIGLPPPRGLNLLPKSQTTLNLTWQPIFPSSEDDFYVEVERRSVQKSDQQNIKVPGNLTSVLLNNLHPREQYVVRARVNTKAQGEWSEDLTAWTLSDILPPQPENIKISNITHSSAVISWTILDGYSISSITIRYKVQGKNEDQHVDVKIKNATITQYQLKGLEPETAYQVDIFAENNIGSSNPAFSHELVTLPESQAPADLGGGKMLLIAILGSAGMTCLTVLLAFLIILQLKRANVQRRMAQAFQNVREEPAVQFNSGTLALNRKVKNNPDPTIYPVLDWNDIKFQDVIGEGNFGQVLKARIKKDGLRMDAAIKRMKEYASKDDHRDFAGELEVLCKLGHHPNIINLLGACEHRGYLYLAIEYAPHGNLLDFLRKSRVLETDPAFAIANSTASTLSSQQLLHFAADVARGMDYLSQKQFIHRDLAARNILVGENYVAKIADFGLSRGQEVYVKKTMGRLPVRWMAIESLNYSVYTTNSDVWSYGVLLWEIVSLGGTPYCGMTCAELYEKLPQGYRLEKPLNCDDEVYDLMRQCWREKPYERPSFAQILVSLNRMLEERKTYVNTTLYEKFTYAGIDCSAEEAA
Description: as §3

Abl = molecular target: T4, Abl (Homo sapiens, UniProt P00519); experiment: as above; type: biochemical; conditions: at a concentration of 10 μM; read-out: percentage inhibition of Abl
T4 construct: purchased Upstate
Description: as §3

CSK = molecular target: T5, CSK (Homo sapiens, UniProt P41240); experiment: as above; type: biochemical; conditions: at a concentration of 10 μM; read-out: percentage inhibition of CSK
T5 construct: purchased Upstate
T5 sequence (P41240 whole entry): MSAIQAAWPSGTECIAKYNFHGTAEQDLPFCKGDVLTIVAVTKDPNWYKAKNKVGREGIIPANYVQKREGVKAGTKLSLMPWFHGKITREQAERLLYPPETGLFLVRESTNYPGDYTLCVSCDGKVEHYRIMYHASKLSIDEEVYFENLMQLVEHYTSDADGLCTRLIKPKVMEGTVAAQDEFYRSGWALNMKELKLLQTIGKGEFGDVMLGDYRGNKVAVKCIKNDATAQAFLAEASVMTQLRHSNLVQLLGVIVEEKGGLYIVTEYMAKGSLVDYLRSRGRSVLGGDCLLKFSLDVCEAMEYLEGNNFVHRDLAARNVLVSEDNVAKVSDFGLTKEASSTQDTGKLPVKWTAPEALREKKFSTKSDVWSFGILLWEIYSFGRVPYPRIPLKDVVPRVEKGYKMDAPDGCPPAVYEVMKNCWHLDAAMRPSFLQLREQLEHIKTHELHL
Description: as §3

FGFR3 = molecular target: T6, FGFR3 (Homo sapiens, UniProt P22607); experiment: as above; type: biochemical; conditions: at a concentration of 10 μM; read-out: percentage inhibition of FGFR3
T6 construct: purchased Upstate
T6 sequence (P22607 23-806): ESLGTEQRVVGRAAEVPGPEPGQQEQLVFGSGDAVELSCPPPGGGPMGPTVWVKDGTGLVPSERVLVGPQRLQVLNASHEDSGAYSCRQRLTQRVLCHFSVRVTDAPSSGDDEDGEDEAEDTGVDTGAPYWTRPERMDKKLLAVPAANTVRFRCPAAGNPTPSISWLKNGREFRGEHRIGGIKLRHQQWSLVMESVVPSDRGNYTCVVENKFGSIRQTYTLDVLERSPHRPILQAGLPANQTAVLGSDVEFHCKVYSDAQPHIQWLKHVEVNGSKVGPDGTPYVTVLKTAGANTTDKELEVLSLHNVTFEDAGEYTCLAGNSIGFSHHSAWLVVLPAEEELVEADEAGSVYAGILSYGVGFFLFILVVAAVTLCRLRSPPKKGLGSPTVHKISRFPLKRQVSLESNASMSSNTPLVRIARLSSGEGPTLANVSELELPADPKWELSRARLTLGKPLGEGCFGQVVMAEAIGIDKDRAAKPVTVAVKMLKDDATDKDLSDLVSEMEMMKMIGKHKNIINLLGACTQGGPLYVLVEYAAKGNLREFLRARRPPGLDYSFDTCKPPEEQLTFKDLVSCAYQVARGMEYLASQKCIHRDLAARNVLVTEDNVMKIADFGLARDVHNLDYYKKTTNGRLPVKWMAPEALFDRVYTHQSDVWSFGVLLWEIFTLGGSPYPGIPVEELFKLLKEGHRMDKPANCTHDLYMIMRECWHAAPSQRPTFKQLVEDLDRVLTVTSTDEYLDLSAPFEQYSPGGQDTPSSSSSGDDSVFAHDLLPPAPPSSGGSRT
Description: as §3

Fes = molecular target: T7, Fes (Homo sapiens, UniProt P07332); experiment: as above; type: biochemical; conditions: at a concentration of 10 μM; read-out: percentage inhibition of Fes
T7 construct: purchased Upstate
T7 sequence (P07332 whole entry): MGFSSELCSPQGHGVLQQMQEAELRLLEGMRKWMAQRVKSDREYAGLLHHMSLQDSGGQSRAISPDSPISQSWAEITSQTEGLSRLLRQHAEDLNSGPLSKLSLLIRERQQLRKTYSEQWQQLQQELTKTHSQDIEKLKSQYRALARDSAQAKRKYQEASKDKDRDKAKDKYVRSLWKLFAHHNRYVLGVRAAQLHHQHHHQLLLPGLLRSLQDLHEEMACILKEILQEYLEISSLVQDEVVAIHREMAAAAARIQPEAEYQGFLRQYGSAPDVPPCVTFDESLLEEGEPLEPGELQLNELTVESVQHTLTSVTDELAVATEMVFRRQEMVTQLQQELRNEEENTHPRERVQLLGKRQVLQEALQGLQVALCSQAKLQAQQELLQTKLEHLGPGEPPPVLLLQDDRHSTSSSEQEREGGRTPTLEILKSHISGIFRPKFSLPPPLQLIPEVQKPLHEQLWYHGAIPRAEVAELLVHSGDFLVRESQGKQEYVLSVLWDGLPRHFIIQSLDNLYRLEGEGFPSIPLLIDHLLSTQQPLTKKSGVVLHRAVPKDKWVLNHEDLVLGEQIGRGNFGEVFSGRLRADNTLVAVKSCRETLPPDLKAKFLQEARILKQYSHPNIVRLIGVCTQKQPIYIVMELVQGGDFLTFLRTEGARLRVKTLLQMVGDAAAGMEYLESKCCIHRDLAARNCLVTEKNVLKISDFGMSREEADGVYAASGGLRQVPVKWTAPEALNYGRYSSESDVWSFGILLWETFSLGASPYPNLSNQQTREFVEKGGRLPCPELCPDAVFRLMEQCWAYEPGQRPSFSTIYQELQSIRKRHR
Description: as §3

Bcr-Abl = experiment: as above; type: biochemical; conditions: at a concentration of 10 μM
Description: as §3

SAPK2α = molecular target: T8, SAPK2α (Homo sapiens, UniProt Q16539); experiment: as above; type: biochemical; conditions: at a concentration of 10 μM; read-out: percentage inhibition of SAPK2α
T8 construct: purchased Upstate
T8 sequence (Q16539 whole entry): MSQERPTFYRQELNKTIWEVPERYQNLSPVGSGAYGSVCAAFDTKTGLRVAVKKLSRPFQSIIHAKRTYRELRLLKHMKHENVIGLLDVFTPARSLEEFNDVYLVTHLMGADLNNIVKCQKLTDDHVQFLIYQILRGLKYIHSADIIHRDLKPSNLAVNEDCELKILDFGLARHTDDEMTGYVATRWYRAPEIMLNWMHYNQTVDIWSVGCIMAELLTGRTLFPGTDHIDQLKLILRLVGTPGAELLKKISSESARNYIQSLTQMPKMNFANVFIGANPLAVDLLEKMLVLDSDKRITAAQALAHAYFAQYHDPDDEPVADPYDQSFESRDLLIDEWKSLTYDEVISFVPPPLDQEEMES
Description: as §3

BTK = molecular target: T9, BTK (Homo sapiens, UniProt Q06187); experiment: as above; type: biochemical; conditions: at a concentration of 10 μM; read-out: percentage inhibition of BTK
T9 construct: purchased Upstate
T9 sequence (Q06187 whole entry): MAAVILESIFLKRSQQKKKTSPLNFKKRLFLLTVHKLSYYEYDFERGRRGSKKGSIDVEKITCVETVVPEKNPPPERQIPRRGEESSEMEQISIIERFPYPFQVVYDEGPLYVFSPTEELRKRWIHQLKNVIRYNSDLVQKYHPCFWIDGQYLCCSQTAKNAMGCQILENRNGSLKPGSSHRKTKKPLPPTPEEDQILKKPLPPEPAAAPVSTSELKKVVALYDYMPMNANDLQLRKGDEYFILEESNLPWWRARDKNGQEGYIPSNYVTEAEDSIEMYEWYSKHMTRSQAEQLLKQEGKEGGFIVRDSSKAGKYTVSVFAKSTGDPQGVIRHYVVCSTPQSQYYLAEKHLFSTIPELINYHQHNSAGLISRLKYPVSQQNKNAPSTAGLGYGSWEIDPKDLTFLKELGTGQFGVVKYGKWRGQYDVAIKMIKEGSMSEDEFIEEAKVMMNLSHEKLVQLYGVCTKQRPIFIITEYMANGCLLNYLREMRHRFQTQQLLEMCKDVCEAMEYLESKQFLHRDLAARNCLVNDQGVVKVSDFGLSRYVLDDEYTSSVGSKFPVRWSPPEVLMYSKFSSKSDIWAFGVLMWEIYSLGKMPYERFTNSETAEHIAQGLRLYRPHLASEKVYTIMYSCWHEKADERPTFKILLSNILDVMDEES
Description: as §3

[2] = molecular target: T10, T315I Bcr-abl (Ba/F3 cells) (Homo sapiens, UniProt P00519, T315I); experiment: Proliferation of Ba/F3 cells expressing mutant Bcr-abl T315I; type: cell-based
T10 construct: expressed in transfected cells; host or cells: Ba/F3; the other entry of the earlier key: BCR (P11274, Breakpoint cluster region protein)
Description: as §1, §2

For `Cc1cn(-c2cc(C(=O)Nc3ccc(C)c(Nc4nccn4-c4ncnc5[nH]ccc45)c3)cc(C(F)(F)F)c2)cn1` [Example 2, 3-(4-methyl-imidazol-1-yl)-N-{4-methyl-3-[1-(7H-pyrrolo[2,3-d]pyrimidin-4-yl)-1H-imidazol-2-ylamino]-phenyl}-5-trifluoromethyl-benzamide], the pIC50 [1] was 7.25, the inhibition at 10 µM (Rsk1) was 88% and the inhibition at 10 µM (Tie2) was 99%. The inhibition at 10 µM (Abl) was 99%, the inhibition at 10 µM (CSK) was 97% and the inhibition at 10 µM (FGFR3) was 89%. For the same compound, the inhibition at 10 µM (Fes) was 71%, the “percentage inhibition of Bcr-Abl” value (Bcr-Abl) was 99% and the inhibition at 10 µM (SAPK2α) was 97%. It also gave an inhibition at 10 µM (BTK) of 99% and a pIC50 [2] of 7.20.
